From PMC4413198, “Inhibition of N-Type Calcium Channels by Fluorophenoxyanilide Derivatives” (Marine Drugs, 2015)
Where “and” joins values, the source holds several entries; their conditions need not be identical. Identical values can stand only once. Like-named read-outs stand apart in the source and are kept apart here.

Assays:
[1] = biological target: T1, human Cav2.2 channels (Homo sapiens, UniProt Q00975); assay: SH-SY5Y neuroblastoma FLIPR assay of KCl-evoked calcium responses in presence of nifedipine; format: cell-based; details: for extent of inhibition of KCl-induced Ca2+ responses: in words; for inhibition at 300 µM: SH-SY5Y, read-out: % Max inhibition
T1 sequence (Q00975 whole entry): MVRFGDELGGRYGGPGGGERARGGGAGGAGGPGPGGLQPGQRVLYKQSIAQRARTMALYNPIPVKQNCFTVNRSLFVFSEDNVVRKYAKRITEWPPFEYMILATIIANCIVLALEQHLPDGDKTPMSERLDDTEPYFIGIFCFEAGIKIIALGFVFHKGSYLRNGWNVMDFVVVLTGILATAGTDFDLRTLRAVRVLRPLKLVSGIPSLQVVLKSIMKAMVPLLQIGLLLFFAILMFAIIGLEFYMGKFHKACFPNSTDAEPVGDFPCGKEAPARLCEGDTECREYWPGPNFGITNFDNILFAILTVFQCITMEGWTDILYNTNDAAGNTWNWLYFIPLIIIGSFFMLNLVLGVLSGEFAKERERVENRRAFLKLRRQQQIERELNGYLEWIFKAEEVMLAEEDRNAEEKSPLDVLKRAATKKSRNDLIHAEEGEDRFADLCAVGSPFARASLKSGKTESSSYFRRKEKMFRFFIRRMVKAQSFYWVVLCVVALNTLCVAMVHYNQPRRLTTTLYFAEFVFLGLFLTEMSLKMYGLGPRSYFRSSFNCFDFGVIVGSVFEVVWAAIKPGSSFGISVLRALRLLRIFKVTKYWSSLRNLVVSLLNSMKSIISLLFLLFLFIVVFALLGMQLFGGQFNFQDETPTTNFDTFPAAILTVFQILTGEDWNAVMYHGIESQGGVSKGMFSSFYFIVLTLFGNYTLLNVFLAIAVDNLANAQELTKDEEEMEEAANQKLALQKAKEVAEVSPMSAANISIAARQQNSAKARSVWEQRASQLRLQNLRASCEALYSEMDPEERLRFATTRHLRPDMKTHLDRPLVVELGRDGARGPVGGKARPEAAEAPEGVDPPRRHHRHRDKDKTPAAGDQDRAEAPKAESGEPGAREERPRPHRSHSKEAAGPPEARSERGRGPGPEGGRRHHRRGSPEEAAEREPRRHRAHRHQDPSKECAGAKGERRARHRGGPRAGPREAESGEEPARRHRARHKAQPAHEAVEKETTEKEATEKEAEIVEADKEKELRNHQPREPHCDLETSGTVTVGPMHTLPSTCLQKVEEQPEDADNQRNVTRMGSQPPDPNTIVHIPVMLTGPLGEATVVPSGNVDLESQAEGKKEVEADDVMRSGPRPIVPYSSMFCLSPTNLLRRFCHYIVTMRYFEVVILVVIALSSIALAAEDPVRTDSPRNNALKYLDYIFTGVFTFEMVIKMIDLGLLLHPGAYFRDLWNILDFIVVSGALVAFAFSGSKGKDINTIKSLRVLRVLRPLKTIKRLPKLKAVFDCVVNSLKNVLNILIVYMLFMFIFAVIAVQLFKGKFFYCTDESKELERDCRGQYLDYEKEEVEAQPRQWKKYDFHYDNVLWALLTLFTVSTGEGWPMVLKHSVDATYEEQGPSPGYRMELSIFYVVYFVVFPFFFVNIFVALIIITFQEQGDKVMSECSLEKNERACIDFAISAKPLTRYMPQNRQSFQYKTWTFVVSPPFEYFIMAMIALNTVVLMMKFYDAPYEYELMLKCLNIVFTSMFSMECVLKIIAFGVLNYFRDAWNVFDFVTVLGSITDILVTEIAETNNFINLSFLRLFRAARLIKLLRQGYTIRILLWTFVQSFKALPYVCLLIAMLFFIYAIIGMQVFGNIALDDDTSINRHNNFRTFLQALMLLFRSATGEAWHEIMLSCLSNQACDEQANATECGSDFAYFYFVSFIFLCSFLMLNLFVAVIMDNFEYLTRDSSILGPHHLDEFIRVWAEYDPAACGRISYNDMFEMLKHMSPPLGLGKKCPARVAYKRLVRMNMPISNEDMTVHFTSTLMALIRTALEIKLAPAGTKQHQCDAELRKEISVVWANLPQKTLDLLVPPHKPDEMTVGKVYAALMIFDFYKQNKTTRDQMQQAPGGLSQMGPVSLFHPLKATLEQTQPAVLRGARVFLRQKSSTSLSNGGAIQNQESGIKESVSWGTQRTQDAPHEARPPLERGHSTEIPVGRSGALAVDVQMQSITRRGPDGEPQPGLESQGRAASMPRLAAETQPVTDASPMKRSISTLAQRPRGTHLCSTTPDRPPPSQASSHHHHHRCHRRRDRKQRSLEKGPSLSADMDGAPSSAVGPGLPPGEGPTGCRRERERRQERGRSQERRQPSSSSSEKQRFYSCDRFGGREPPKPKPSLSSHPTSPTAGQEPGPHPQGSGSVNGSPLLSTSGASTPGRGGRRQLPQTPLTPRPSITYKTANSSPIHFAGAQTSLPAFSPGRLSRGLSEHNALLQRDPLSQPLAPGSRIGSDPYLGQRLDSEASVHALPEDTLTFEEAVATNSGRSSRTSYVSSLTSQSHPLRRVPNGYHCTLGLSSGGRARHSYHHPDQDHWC
T1 sequence (P54284 whole entry partner): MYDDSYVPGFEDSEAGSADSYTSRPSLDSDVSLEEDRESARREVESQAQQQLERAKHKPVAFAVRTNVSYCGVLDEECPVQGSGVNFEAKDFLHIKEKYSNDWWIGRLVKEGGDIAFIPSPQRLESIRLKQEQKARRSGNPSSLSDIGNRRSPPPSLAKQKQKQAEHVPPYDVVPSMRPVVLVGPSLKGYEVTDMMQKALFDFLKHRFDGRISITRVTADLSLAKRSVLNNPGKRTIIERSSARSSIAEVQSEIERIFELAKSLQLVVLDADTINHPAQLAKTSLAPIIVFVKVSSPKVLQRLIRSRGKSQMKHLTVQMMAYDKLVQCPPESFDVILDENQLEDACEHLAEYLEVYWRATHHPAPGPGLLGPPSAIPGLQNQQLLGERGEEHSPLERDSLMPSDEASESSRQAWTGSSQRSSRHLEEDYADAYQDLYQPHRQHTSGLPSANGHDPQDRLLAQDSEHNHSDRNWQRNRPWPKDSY
T1 sequence (P54289 25-956 partner limits assumed): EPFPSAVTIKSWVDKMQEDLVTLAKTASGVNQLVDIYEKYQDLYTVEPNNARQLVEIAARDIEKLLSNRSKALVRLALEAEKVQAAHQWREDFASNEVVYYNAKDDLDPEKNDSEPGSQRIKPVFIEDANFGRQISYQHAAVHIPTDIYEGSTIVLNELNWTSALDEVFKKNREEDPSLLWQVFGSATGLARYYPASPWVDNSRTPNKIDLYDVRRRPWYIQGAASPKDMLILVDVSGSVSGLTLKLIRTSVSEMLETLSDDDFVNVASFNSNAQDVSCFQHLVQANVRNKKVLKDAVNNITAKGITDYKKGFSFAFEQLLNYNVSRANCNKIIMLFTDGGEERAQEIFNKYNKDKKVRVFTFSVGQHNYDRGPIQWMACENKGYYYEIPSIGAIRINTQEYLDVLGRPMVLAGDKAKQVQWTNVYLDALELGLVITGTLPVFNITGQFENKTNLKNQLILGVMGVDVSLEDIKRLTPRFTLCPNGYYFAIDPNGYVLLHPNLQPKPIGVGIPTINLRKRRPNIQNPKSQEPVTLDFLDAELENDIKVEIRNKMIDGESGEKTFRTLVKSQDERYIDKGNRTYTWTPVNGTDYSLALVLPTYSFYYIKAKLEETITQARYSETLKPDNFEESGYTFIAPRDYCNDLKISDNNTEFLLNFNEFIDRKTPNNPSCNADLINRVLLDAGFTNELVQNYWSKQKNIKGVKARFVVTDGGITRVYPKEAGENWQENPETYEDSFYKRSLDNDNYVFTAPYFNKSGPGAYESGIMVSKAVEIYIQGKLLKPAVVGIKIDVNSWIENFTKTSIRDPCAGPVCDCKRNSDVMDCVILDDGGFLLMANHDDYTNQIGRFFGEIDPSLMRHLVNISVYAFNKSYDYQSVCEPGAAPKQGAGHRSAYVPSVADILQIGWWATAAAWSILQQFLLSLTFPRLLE
T1 sequence (P54289 957-1103 partner limits assumed): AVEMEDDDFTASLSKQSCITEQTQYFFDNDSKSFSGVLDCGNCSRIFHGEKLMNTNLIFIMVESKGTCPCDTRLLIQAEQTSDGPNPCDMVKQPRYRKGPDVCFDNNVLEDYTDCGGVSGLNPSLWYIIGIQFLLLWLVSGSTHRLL

[2] = biological target: T1, human Cav2.2 channels; details: HEK293 cells stably expressing human Cav2.2; n = 4–7; personal communication ref 40; read-out: IC50, block of calcium currents; cited from earlier work
[3] = design: method as in earlier work; details: primary endpoint; cited from earlier work
[4] = test system: N-type channel; details: cited from earlier work
[5] = SH-SY5Y cells, 90 mM KCl and 5 mM CaCl2, 10 µM nifedipine, 5 min pre-treatment
[6] = SH-SY5Y cells, 90 mM KCl and 5 mM CaCl2, 10 µM nifedipine, 5 min pre-treatment, read-out: IC50

| Structure (SMILES) | logIC50 [1, 5] | IC50 [1, 6] [µM] | extent of inhibition of KCl-induced Ca2+ responses ([1]; SH-SY5Y cells) | inhibition at 300 µM [1] [%] | other results |
| --- | --- | --- | --- | --- | --- |
| NCCCOc1ccc(C(=O)Nc2ccccc2Oc2ccc(F)cc2)cc1 [5a, 4-(3-Aminopropoxy)-N-(2-(4-fluorophenoxy)phenyl)benzamide] | –4.34 | 46 | fully blocked |  |  |
| NCCCOc1ccc(C(=O)Nc2cccc(Oc3ccc(F)cc3)c2)cc1 [5b, 4-(3-Aminopropoxy)-N-(3-(4-fluorophenoxy)phenyl)benzamide] | –4.45 | 35 | fully blocked |  |  |
| NCCCOc1ccc(C(=O)Nc2ccc(Oc3ccc(F)cc3)cc2)cc1 [5c, 4-(3-Aminopropoxy)-N-(4-(4-fluorophenoxy)phenyl)benzamide] | ~–3.12 | 764 | partially inhibited responses | 30 |  |
| Cl.N=C(N)NCCCOc1ccc(C(=O)Nc2ccccc2Oc2ccc(F)cc2)cc1 [6a, N-(2-(4-Fluorophenoxy)phenyl)-4-(3-guanidinopropoxy)benzamide hydrochloride] | –3.90 |  |  | 65 | IC50 [2]: 36.3 ± 2.4 µM |
| Cl.N=C(N)NCCCOc1ccc(C(=O)Nc2cccc(Oc3ccc(F)cc3)c2)cc1 [6b, N-(3-(4-Fluorophenoxy)phenyl)-4-(3-guanidinopropoxy)benzamide hydrochloride] | –3.73 | 185 |  |  |  |
| Cl.N=C(N)NCCCOc1ccc(C(=O)Nc2ccc(Oc3ccc(F)cc3)cc2)cc1 [6c, N-(4-(4-Fluorophenoxy)phenyl)-4-(3-guanidinopropoxy)benzamide hydrochloride] | –3.14 | 723 | partially inhibited responses | 19 |  |
| O=C(CC(c1ccccc1)c1ccccc1)N1CCN(C(c2ccccc2)c2ccccc2)CC1 [Z160] |  |  |  |  | outcome of Phase II clinical studies [3]: failed to meet the primary endpoint |
| N=C(N)NCCCCCCCC(=O)Nc1ccc(OCCCNC(=N)N)cc1C(=O)Nc1ccc(Oc2ccc(F)cc2)cc1 [compound 3, reference compound] |  |  |  | 15 | activity in radioligand-displacement assay (in words) [4]: most potent fluorinated analogue; extent of inhibition of Ca2+ responses at 1 mM [1]: only partially inhibited responses; logIC50 [1]: ~–2.84; IC50 ([1]; IC50): ~1450 µM and 1450 µM |
| NCCCCCCCC(=O)Nc1ccc(OCCCN)cc1C(=O)Nc1ccc(Oc2ccc(F)cc2)cc1 [compound 4] |  |  |  |  | activity in radioligand-displacement assay (in words) [4]: comparatively weak activity |
